This is an account of results in ChEMBL document CHEMBL3868597, “Modulating amyloid-β aggregation: The effects of peptoid side chain placement and chirality” (Bioorg Med Chem, 2017).

The target of assay [1] is Amyloid-beta precursor protein (Homo sapiens) (UniProt P05067). In words: Inhibition of agitated amyloid beta (1 to 40) (unknown origin) aggregation assessed as increase in lag time at 100 uM by dot blot analysis relative to control.
Assay [2] shares this target. In words: Inhibition of agitated amyloid beta (1 to 40) (unknown origin) aggregation at 100 uM measured at equilibrium by thioflavin T based fluorometric assay.
For assay [3] the target is unchanged. In words: Inhibition of agitated amyloid beta (1 to 40) (unknown origin) aggregation assessed as reduction in fibrillar aggregates at 100 uM by dot blot analysis.
The target is the same in assay [4]. The experiment in a line: Inhibition of amyloid beta (1 to 40) (unknown origin) aggregation assessed as absence of fibrillar branching at equilibrium at 100 uM by uranyl acetate staining based transmission electron microscopic analysis.
For assay [5] the target is unchanged. In words: Inhibition of amyloid beta (1 to 40) (unknown origin) aggregation assessed as reduction in number aggregates at equilibrium at 100 uM after 24 hrs by uranyl acetate staining based transmission electron microscopic analysis.
Assay [6] has the same target. The experiment in a line: Inhibition of agitation-induced amyloid beta (1 to 40) (unknown origin) aggregation at 100 uM measured every 45 mins by thioflavin T based fluorometric assay.
The target is the same in assay [7]. The experiment in a line: Inhibition of agitation-induced amyloid beta (1 to 40) (unknown origin) aggregation assessed as reduction in fibrillar aggregates at 100 uM measured every 30 to 45 mins by dot blot analysis.
Assay [8] shares this target. In words: Inhibition of agitation-induced amyloid beta (1 to 40) (unknown origin) aggregation assessed as decrease in lag time at 100 uM by dot blot analysis relative to control.
Assay [9] has the same target. In words: Inhibition of amyloid beta (1 to 40) (unknown origin) aggregation assessed as decrease in size of protein aggregation at equilibrium at 100 uM after 24 hrs by uranyl acetate staining based transmission electron microscopic analysis.
For assay [10] the target is unchanged. In words: Inhibition of agitation-induced amyloid beta (1 to 40) (unknown origin) aggregation assessed as decrease in lag time at 100 uM measured every 30 to 45 mins by dot blot analysis relative to control.
For assay [11] the target is unchanged. The experiment in a line: Inhibition of amyloid beta (1 to 40) (unknown origin) aggregation assessed as increase in surface hydrophobicity at equilibrium by nile red dye-based spectroscopic analysis.
For assay [12] the target is unchanged. In words: Inhibition of amyloid beta (1 to 40) (unknown origin) aggregation assessed as circular/bird-nest like aggregate formation at equilibrium at 100 uM after 24 hrs by uranyl acetate staining based transmission electron microscopic analysis.

Activity calls are given as the source filed them. The calls are words filed in the database; no cut-off is given here. Non-standard residues stand in square brackets, D forms with d. Residues, ends and D or L forms follow the SMILES beside them. N(1S-Me-propyl)Gly = CC[C@H](C)NCC(=O)O; Nspe = C[C@H](NCC(=O)O)c1ccccc1; Nphe = O=C(O)CNCc1ccccc1; NPrGly = CCCNCC(=O)O; Nlys = NCCCCNCC(=O)O

Amyloid-beta precursor protein (Homo sapiens), sequence (P05067 whole entry): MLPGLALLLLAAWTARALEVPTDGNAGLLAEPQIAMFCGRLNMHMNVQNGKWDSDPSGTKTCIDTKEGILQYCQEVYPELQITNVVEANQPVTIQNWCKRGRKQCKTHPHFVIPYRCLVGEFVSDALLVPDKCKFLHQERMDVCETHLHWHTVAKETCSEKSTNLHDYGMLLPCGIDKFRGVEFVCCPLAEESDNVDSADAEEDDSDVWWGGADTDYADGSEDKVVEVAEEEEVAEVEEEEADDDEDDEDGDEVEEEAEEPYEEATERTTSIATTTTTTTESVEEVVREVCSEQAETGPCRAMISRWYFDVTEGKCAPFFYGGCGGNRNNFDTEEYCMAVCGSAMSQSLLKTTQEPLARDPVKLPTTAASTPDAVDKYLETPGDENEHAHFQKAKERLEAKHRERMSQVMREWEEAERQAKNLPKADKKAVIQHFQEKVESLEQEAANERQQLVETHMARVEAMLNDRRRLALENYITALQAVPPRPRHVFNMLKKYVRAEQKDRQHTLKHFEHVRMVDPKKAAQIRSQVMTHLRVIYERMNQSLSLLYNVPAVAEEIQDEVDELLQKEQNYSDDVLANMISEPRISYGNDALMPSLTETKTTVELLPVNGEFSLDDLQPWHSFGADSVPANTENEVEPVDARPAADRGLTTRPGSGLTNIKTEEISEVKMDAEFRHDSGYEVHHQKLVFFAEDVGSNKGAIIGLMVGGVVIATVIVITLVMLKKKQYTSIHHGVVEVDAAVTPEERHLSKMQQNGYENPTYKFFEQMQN

For `CC[C@H](C)NCC(=O)N(CC(=O)N(CC(=O)N(CC(=O)N(CC(=O)N(CCCCN)CC(=O)N(CC(=O)N(CC(N)=O)[C@@H](C)c1ccccc1)[C@@H](C)CC)[C@@H](C)CC)[C@@H](C)c1ccccc1)[C@@H](C)c1ccccc1)[C@@H](C)c1ccccc1` (H-[N(1S-Me-propyl)Gly][Nspe][Nspe][Nspe][N(1S-Me-propyl)Gly][Nlys][N(1S-Me-propyl)Gly][Nspe]-NH2), in [1], the fold change (FC) was 2.2. Moreover, the results for the inhibition in [2] and in [3] were 76.9% and 50.5%, respectively. In addition, the inhibition entry in assay [4] and in [5] was “Active” throughout.

Consider `CC[C@H](C)N(CC(=O)N(CC(=O)N(CC(=O)N(CC(=O)N(CC(=O)N(CC(=O)N(CC(N)=O)[C@@H](C)c1ccccc1)[C@@H](C)c1ccccc1)[C@@H](C)CC)[C@@H](C)c1ccccc1)[C@@H](C)c1ccccc1)[C@@H](C)CC)C(=O)CNCCCCN` (H-[Nlys][N(1S-Me-propyl)Gly][N(1S-Me-propyl)Gly][Nspe][Nspe][N(1S-Me-propyl)Gly][Nspe][Nspe]-NH2), for which the fold change (FC) in assay [1] was 2.7; in assay [8] it was under 0.5; in assay [10], under 0.31. Moreover, the inhibition stood at 83.1% in assay [2], 81.2% in [6], 63.7% in assay [7] and 46% in assay [3]. For the same compound, the inhibition entry in assay [9], in assay [4] and in assay [5] was “Active” each time.

Take `CCCN(CC(=O)N(CCC)CC(=O)N(CC(=O)N(CC(=O)N(CCC)CC(=O)N(CC(=O)N(CC(N)=O)Cc1ccccc1)Cc1ccccc1)Cc1ccccc1)Cc1ccccc1)C(=O)CNCCCCN` (H-[Nlys][NPrGly][NPrGly][Nphe][Nphe][NPrGly][Nphe][Nphe]-NH2): the inhibition in assay [2] was 85.6%; in [3], 72.6%. Further, the inhibition entry in [11], in assay [4], in assay [5] and in assay [12] was “Active” in each case.

What is called inhibition is how much of the control response was suppressed.
